Test results published in patent US9517225B2, “Low dose lipoic acid pharmaceutical compositions and methods” (ENCORE HEALTH, LLC, priority 2008, dated 2016).

Key:
Type in all cases: cell-based
mouse lenses = assay: Increase in elasticity: lens organ culture, change in lens diameter under coverslip (ΔD); conditions: mouse lenses incubated 8-15 hours, 0.5 μM to 500 μM tested, p<0.0001
Description: FIG. 4 depicts a scatter plot of the change in ΔD (micrometers) in the absence (control) and presence of lipoic acid in lens organ culture experiments. […] Statistical values are highly significant at p<0.0001 by unpaired t-test and by Kruskal Wallis test, which compared medians of each data set. The relative change in Young's modulus (E) can be calculated as the cubic value derived from the ΔD of the control divided by the ΔD of the experimental or E fractional change=(ΔD con/ΔDexp)^3.
Increase in Elasticity: Pairs of mouse lenses were incubated in medium 200 supplemented with an antibiotic, an antimycotic, in the presence or absence of lipoic acid (concentrations ranging from 0.5 μM to 500 μM) for 8-15 hours. Each lens was removed from medium, weighed, and photographed on a micrometer scale. A coverslip of known weight (0.17899±0.00200 g) was placed on the lens, and the lens was photographed again on the micrometer scale. The diameter of each lens with and without the coverslip was determined from the photographs. The change in lens diameter produced by the force (coverslip) was computed ΔD=(Dwithcoverslip−Dwithoutcoverslip).

[1] = test system: human umbilical vein endothelial cells (HUVEC, first passage); assay: In vitro toxicology: cell viability, MultiTox-Fluor or Live/Dead assay; conditions: doses ranging from 0.1 μM to 100 μM
Procedure: Cell viability was determined using human umbilical vein endothelial cells (HUVEC, first passage). Cells were treated with the active agent in doses ranging from 0.1 μM to 100 μM. The number of live and dead cells was determined using the MultiTox-Fluor assay (Promega) or Live/Deadly® assay (Invitrogen). Logistic plots were used to determine the compound's LD50 value. Lipoic acid was not cytotoxic in the concentration range.

[2] = test system: protein disulfides in the mouse lenses; assay: Decrease in disulfide bonds: protein SH/SS in lens homogenates by fluorescent alkylation; conditions: FIG. 5, p≦0.05 vs control
Procedure: FIG. 5 depicts a scattergram of the percent of the total protein SH groups in disulfide bonds. Free SH groups were alkylated with 4-acetamido-4′-maleimidylstilbene-2,2′-sulfonic acid (c, 1 μM, 5 μM, 9.6 μM, 50 μM, 96 μM) or 7-diethylamino-3-(4′maleimidylphenyl)-4-methyl coumarin (500 μM, and 500 μM c). Following removal of the first alkylating agent, the S—S bonds were reduced and alkylated with fluorescein-5-maleimide. Absorption spectra were used to calculated total protein (A280 nm), free protein SH (A322 or A384), and protein SS (A490) using the appropriate extinction coefficients. The symbol ‡ indicates statistically significant difference of mean with mean of control (c, p≦0.05).
Mouse lenses were homogenized in a denaturing buffer containing a fluorescent alkylating agent to modify the free SH groups. After removing the alkylating agent homogenates were reduced and alkylated with a different fluorescent alkylating agent. Absorption spectra of the modified proteins were used to calculate free protein SH and protein SS groups.

For `O=C(O)CCCCC1CCSS1` (stereo not drawn) [lipoic acid, 5-(1,2-dithiolan-3-yl)pentanoic acid], the “concentrations causing a statistically significant increase in ΔD” value (mouse lenses) was ≥ 9.6 µM, the “cytotoxicity (live and dead cells)” value [1] was “not cytotoxic” and the “concentrations causing a statistically significant decrease in protein disulfides” value [2] was ≥ 9.6 µM.
